Source: patent publication US20240067632A1, “WEE1 Degrading Compounds and Uses Thereof” (Bristol-Myers Squibb Company, priority 2022, published 2024)
Like-named read-outs stand apart in the source and are kept apart here.

Assays:
[1] = biological target: T1, WEE1 (Homo sapiens, UniProt P30291+Q96SW2); assay: WEE1-ePL degradation assay (LentiX-WEE1-ePL-GSPT1-ND cells, InCELL Hunter luminescence, 4 h); assay type: cell-based; conditions: 293T-LentiX WEE1-ePL cells; for DC50: read-out: 293T-LentiX WEE1-ePL Degradation 4 hr (EC50)
T1 construct: C-terminal ePL-tagged (DiscoverX, Fremont, CA) full-length WEE1 expression construct; expressed in transfected cells; host or cells: LentiX-HEK293T (Invitrogen), lentiviral transduction; co-expressing GSPT1-GN (G576N, lacking the first 158 amino acids)
Procedure, shortened: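 Degradation EC50 was fitted by a four-parameter logistic model, with the upper limit taken from DMSO wells. Luminescence was read with InCELL Hunter reagent after 30 min at room temperature, following a 4 h, 37° C exposure of 2500 cells/well. Cells were LentiX-HEK293T carrying ePL-tagged full-length WEE1, dosed in 10 points (3-fold) from 1 or 10 uM.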

[2] = tested on: MKN45 cells; assay: MKN45 cell proliferation assay (Cell-Titer-Glo, 120 h); assay type: cell-based; conditions: for EC50: Homo sapiens, MKN-45, 120 h, Cell-Titer-Glo, read-out: MKN45 Cell Prolif. 120 hr (EC50); for MKN45 Cell Prolif. 120 hr (Ymin-Obs): minimal percent of DMSO control observed in the concentrations tested
Procedure, shortened: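 Growth inhibition was read as blank-corrected Cell-Titer-Glo luminescence expressed as percent DMSO control after 120 h at 37 C, 400 cells/well. Compounds tested in triplicate as 10-point half-log series from 1 or 10 uM, 0.1% DMSO; four-parameter fit gave EC50, and lowest observed percent control was reported as Ymin-obs.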

[3] = lower limit of the fit (0 = luciferase inhibitor, Ymax = DMSO control)
[4] = lower limit of the fit (Ymin=0 luciferase inhibitor, Ymax DMSO control)

Structure (SMILES) | 293T-LentiX WEE1-ePL Degradation 4 hr (Ymin) [1, 3] | DC50 [1] [nM] | EC50 ([2]; growth inhibition) [nM] | 293T-LentiX WEE1-ePL Degradation 4 hr (Ymin) [1, 4] | EC50 [2] [nM] | MKN45 Cell Prolif. 120 hr (Ymin-Obs) [2]
O=C1CC[C@H](N2Cc3cc(O[C@H]4CCN(Cc5ccc6nc(N7CCOCC7)ncc6c5Cl)C4)ccc3C2=O)C(=O)N1 [(3S)-3-(5-{[(3S)-1-{[5-chloro-2-(morpholin-4-yl)quinazolin-6-yl]methyl}pyrrolidin-3-yl]oxy}-1-oxo-2,3-dihydro-1H-isoindol-2-yl)piperidine-2,6-dione] |  | 3.58 |  | 28.46 | 18.3 | 17.49
O=C1CCC(N2Cc3cc(O[C@H]4CCN(Cc5ccc6nc(C7COC7)ncc6c5)C4)ccc3C2=O)C(=O)N1 (stereo partly drawn) [3-(5-{[(3S)-1-{[2-(oxetan-3-yl)quinazolin-6-yl]methyl}pyrrolidin-3-yl]oxy}-1-oxo-2,3-dihydro-1H-isoindol-2-yl)piperidine-2,6-dione] | 30 | 16.8 | 16.7 |  |  | 7.8
O=C1CCC(N2Cc3cc(O[C@H]4CCN(Cc5ccc6nc(N7C[C@H]8CC[C@@H](C7)O8)ccc6c5)C4)ccc3C2=O)C(=O)N1 (stereo partly drawn) [3-(5-{[(3S)-1-({2-[(1R,5S)-8-oxa-3-azabicyclo[3.2.1]octan-3-yl]quinolin-6-yl}methyl)pyrrolidin-3-yl]oxy}-1-oxo-2,3-dihydro-1H-isoindol-2-yl)piperidine-2,6-dione] | 37 | 6.5 | 6.42 |  |  | 11.085
Cc1ncc2cc(CN3CC[C@H](Oc4ccc5c(c4)CN(C4CCC(=O)NC4=O)C5=O)C3)ccc2n1 (stereo partly drawn) [3-(5-{[(3S)-1-[(2-methylquinazolin-6-yl)methyl]pyrrolidin-3-yl]oxy}-1-oxo-2,3-dihydro-1H-isoindol-2-yl)piperidine-2,6-dione] | 34.5 | 29.6 | 27.1 |  |  | 7.995
O=C1CCC(N2Cc3cc(O[C@H]4CCN(Cc5ccc6nc(N7CCC78CCOCC8)ccc6c5)C4)ccc3C2=O)C(=O)N1 (stereo partly drawn) [3-(5-{[(3S)-1-[(2-{7-oxa-1-azaspiro[3.5]nonan-1-yl}quinolin-6-yl)methyl]pyrrolidin-3-yl]oxy}-1-oxo-2,3-dihydro-1H-isoindol-2-yl)piperidine-2,6-dione] | 33 | 6.05 | 3.7 |  |  | 7.36
CN1CCN(c2ccc3cc(CN4CC[C@H](Oc5ccc6c(c5)CN(C5CCC(=O)NC5=O)C6=O)C4)ccc3n2)CC1 (stereo partly drawn) [3-(5-{[(3S)-1-{[2-(4-methylpiperazin-1-yl)quinolin-6-yl]methyl}pyrrolidin-3-yl]oxy}-1-oxo-2,3-dihydro-1H-isoindol-2-yl)piperidine-2,6-dione] | 33.5 | 6.77 | 20 |  |  | 13.365
CO[C@H]1CC[C@H](Oc2ccc3cc(CN4CC[C@H](Oc5ccc6c(c5)CN(C5CCC(=O)NC5=O)C6=O)C4)ccc3n2)CC1 (stereo partly drawn) [3-(1-oxo-5-{[(3S)-1-[(2-{[(1r,4r)-4-methoxycyclohexyl]oxy}quinolin-6-yl)methyl]pyrrolidin-3-yl]oxy}-2,3-dihydro-1H-isoindol-2-yl)piperidine-2,6-dione] | 30.67 | 11.5 | 9.05 |  |  | 8.57
CC(C)(O)c1cc(CN2CC[C@H](Oc3ccc4c(c3)CN([C@H]3CCC(=O)NC3=O)C4=O)C2)cc2ccc(C3CCOCC3)nc12 [(3S)-3-(5-{[(3S)-1-{[8-(2-hydroxypropan-2-yl)-2-(oxan-4-yl)quinolin-6-yl]methyl}pyrrolidin-3-yl]oxy}-1-oxo-2,3-dihydro-1H-isoindol-2-yl)piperidine-2,6-dione] |  | 6.72 |  | 53.75 | 166 | 75.97
O=C1CCC(N2Cc3cc(O[C@H]4CCN(Cc5ccc6c(c5)CCCN6)C4)ccc3C2=O)C(=O)N1 (stereo partly drawn) [3-(1-oxo-5-{[(3S)-1-[(1,2,3,4-tetrahydroquinolin-6-yl)methyl]pyrrolidin-3-yl]oxy}-2,3-dihydro-1H-isoindol-2-yl)piperidine-2,6-dione] | 79 | 3330 | > 10000 |  |  | 93.175
C[C@H]1c2cc(O[C@H]3CCN(Cc4ccc5nc(C6CCOCC6)ccc5c4)C3)ccc2C(=O)N1[C@H]1CCC(=O)NC1=O [(3S)-3-[(3S)-3-methyl-5-{[(3S)-1-{[2-(oxan-4-yl)quinolin-6-yl]methyl}pyrrolidin-3-yl]oxy}-1-oxo-2,3-dihydro-1H-isoindol-2-yl]piperidine-2,6-dione] |  | 212 |  | 49.25 | 374 | 86.82
O=C1CCC(N2Cc3cc(O[C@H]4CCN(Cc5cc6ccncc6cn5)C4)ccc3C2=O)C(=O)N1 (stereo partly drawn) [3-(5-{[(3S)-1-[(2,7-naphthyridin-3-yl)methyl]pyrrolidin-3-yl]oxy}-1-oxo-2,3-dihydro-1H-isoindol-2-yl)piperidine-2,6-dione] | 28.095 | 19.3 | 98.8 |  |  | 6.92
CC1(C)C[C@H](c2ccc3cc(CN4CC[C@H](Oc5ccc6c(c5)CN([C@H]5CCC(=O)NC5=O)C6=O)C4)ccc3n2)CCO1 [(3S)-3-(5-{[(3S)-1-({2-[(4R)-2,2-dimethyloxan-4-yl]quinolin-6-yl}methyl)pyrrolidin-3-yl]oxy}-1-oxo-2,3-dihydro-1H-isoindol-2-yl)piperidine-2,6-dione] |  | 1.85 |  | 26.67 | 1.83 | 11.19
O=C1CCC(N2Cc3cc(O[C@H]4CCN(Cc5ccc(-c6ccccc6)cn5)C4)ccc3C2=O)C(=O)N1 (stereo partly drawn) [3-(1-oxo-5-{[(3S)-1-[(5-phenylpyridin-2-yl)methyl]pyrrolidin-3-yl]oxy}-2,3-dihydro-1H-isoindol-2-yl)piperidine-2,6-dione] | 46 | 7.59 | 131 |  |  | 31.28

The remaining molecules from weak to strong by DC50 [1], led by results:

293T-LentiX WEE1-ePL Degradation 4 hr (Ymin) [1, 3] | DC50 [1] [nM] | EC50 ([2]; growth inhibition) [nM] | 293T-LentiX WEE1-ePL Degradation 4 hr (Ymin) [1, 4] | EC50 [2] [nM] | Structure (SMILES) | MKN45 Cell Prolif. 120 hr (Ymin-Obs) [2]
48.23 | 51.9 | 4770 |  |  | O=C1CCC(N2Cc3cc(O[C@H]4CCN(Cc5ncc6ccccc6n5)C4)ccc3C2=O)C(=O)N1 (stereo partly drawn) [3-(1-oxo-5-{[(3S)-1-[(quinazolin-2-yl)methyl]pyrrolidin-3-yl]oxy}-2,3-dihydro-1H-isoindol-2-yl)piperidine-2,6-dione] | 74.28
34.39 | 14.6 | 13.3 |  |  | O=C1CCC(N2Cc3cc(O[C@H]4CCN(Cc5ccc6nc(N7CC[C@@]78CCOC8)ncc6c5)C4)ccc3C2=O)C(=O)N1 (stereo partly drawn) [3-(5-{[(3S)-1-({2-[(4S)-6-oxa-1-azaspiro[3.4]octan-1-yl]quinazolin-6-yl}methyl)pyrrolidin-3-yl]oxy}-1-oxo-2,3-dihydro-1H-isoindol-2-yl)piperidine-2,6-dione] | 12.16
30 | 4.67 | 2.79 |  |  | O=C1CCC(N2Cc3cc(O[C@H]4CCN(Cc5ccc6nc([C@H]7CC[C@H](O)CC7)ccc6c5)C4)ccc3C2=O)C(=O)N1 (stereo partly drawn) [3-(1-oxo-5-{[(3S)-1-({2-[(1r,4r)-4-hydroxycyclohexyl]quinolin-6-yl}methyl)pyrrolidin-3-yl]oxy}-2,3-dihydro-1H-isoindol-2-yl)piperidine-2,6-dione] | 7.3325
34 | 3.97 | 6.02 |  |  | O=C1CCC(N2Cc3cc(O[C@H]4CCN(Cc5ccc6nc(N7CCCC7)ccc6c5)C4)ccc3C2=O)C(=O)N1 (stereo partly drawn) [3-(1-oxo-5-{[(3S)-1-{[2-(pyrrolidin-1-yl)quinolin-6-yl]methyl}pyrrolidin-3-yl]oxy}-2,3-dihydro-1H-isoindol-2-yl)piperidine-2,6-dione] | 11.865
32 | 2.85 | 15.9 |  |  | O=C1CCC(N2Cc3cc(O[C@H]4CCN(Cc5ccc6ncc(C(F)(F)F)cc6c5)C4)ccc3C2=O)C(=O)N1 (stereo partly drawn) [3-(1-oxo-5-{[(3S)-1-{[3-(trifluoromethyl)quinolin-6-yl]methyl}pyrrolidin-3-yl]oxy}-2,3-dihydro-1H-isoindol-2-yl)piperidine-2,6-dione] | 11.23
35.5 | 2.59 | 2.68 |  |  | O=C1CC[C@H](N2Cc3cc(O[C@H]4CCN(Cc5ccc6nc([C@H]7CCOC7)ccc6c5)C4)ccc3C2=O)C(=O)N1 [(3S)-3-(1-oxo-5-{[(3S)-1-({2-[(3R)-oxolan-3-yl]quinolin-6-yl}methyl)pyrrolidin-3-yl]oxy}-2,3-dihydro-1H-isoindol-2-yl)piperidine-2,6-dione] | 8.547
